For orientation: pIC50 means the negative decadic logarithm of the IC50, by convention in mol/L. In general, pEC50 refers to −log10 of the EC50, conventionally taken in molar units.

The source of these data is patent US20170165266A1 (Celgene Corporation, priority 2010, published 2017).

The subject of assay [1] is bleomycin induced dermal fibrosis. The settings on record: previously shown, Akhmetshina et al. 2009; cited from earlier work.
In assay [2] the test system is IL-10. Nature of the assay: IL-10 production in LPS-stimulated hPBMC (Luminex). Type of assay: cell-based, human. As to conditions: at 10 μM; used as upper constraint for EC50s. On the procedure:
(§1) 50 ml human buffy coat was aliquoted 25 ml each into two 50 ml conical tubes and 25 ml sterile HBSS was added to each conical tube. The tubes were gently mixed by inverting. Fifteen ml of room temperature Ficoll-Paque Plus (GE Healthcare (location); cat #17-1440-02) was aliquoted into four 50 ml conical tubes. Then 25 ml of the Buffy coat/HBSS mixture was layered gently and slowly on top of the Ficoll. The samples were centrifuged at 450 rpm for 35 minutes. The top layered containing plasma was pipetted off and discarded. The interface containing mononuclear cells was transferred into two 50 ml conical tubes. Both conical tubes were filled to total volume of 50 ml with HBSS and centrifuged at 1200 rpm for 10 minutes. The cells were washed again in HBSS and spun at 1000 rpm for 10 minutes. Cell pellet was resuspended with 20 ml RPMI complete medium (RPMI/5% human sera/1× pen/strep/glut) and counted.
(§2) One hundred μl (2×10^6/ml) of hPBMCs were added to each well of a 96 well flat-bottom plate (final cell count=2×10^5/well) and incubated at 37° C. for 1 hour. […]
(§3) Supernatant samples were analyzed for cytokines in multiplex format according to the manufacturer's instructions (Millipore, Billerica, Mass. 01821) using a Luminex IS100 instrument. […]

Assay [3] has as its system MIP-1β. The experiment in a line: MIP-1β production in LPS-stimulated hPBMC (Luminex). It is filed as cell-based. The settings on record: Homo sapiens; LPS 1 ng/ml, 18 hours. On the procedure:
as §1, §2, §3

Assay [4] has as its system IgM production. Nature of the assay: IgM production in B cell differentiation assay (ELISA). Type of assay: cell-based. The settings on record: Homo sapiens. On the procedure: (§4) Step 1—B cell Activation—day 0 through day 4: Prepare fresh B cell cocktail by adding 50 μg/mL of human transferrin to B cell media. (Iscoves +10% PFBS, 1% P/S, and 5 μg/mL human insulin). Filter required volume of media needed for experiment through a […] filter. Add B cell differentiation cocktail (final concentration): recombinant human IL-2 (20 U/mL), IL-10 (50 ng/mL), IL-15 (10 ng/mL), CD40 Ligand/TNFSFS/histidine-tagged (50 ng/mL), polyHistidine mouse IgG1 antibody (5 μg/mL), and ODN 2006-Human TLR9 ligand (10 μg/mL) to cells. Five milliliters (1×10^5/ml) of CD19+ B cell were added to each well of a 6 well flat-bottom plate (final cell count=5×10^5/well). Five μL (1×)±compound/DMSO was added to each test well (0.1% final DMSO) and incubated at 37° C. for 4 days.
(§5) Step 2—Plasmablast Generation—day 4 through day 7: Cells were harvested and counted on the cell counter; an aliquot was removed for flow analysis, the remaining cells were washed with PBS. […]
(§6) On day 7, cells were harvested and counted on the cell counter. […]
(§7) Supernatants (from section 8.4.3) were harvested and analyzed by ELISA for IgG and IgM production (ZeptoMetrix Corp. Buffalo, N.Y.).
(§8) The data was graphed using GraphPad Prism 5.0 software. […] The results for test compounds in the Ig assays were expressed as the percentage inhibition relative to control DMSO values.
(In an ELISA, binding on a coated surface is turned into a signal by an enzyme label.)

In assay [5] the test system is NK cell IFN-γ production. The experiment in a line: NK IgG-induced interferon-gamma (IFN-gamma) assay. It is filed as cell-based, human. On the procedure:
NK cells from healthy donors were isolated from buffy coat blood by negative selection using the RosetteSep NK cell enrichment cocktail (Stem Cell Technologies, Vancouver, BC) prior to Ficoll-Hypaque (Fisher Scientific Co LLC, PA) density gradient centrifugation following the manufacturers' instructions. CD56+ NK cells were isolated to ˜85% purity, as determined by flow cytometry (BD Biosciences, CA). Ninety-six-well flat-bottom plates were coated with 100 μg/mL of human IgG (Sigma) overnight at 4° C. The next day, unbound IgG was washed away with cold 1× PBS. NK cells were then plated in the IgG-coated 96-well plates at 2×10^5 cells per well in 180 μL RPMI-1640 Media and 10 ng/mL of rhIL-2 (R & D Systems, MN) was added. […] Final DMSO concentrations were 0.25%. After 48 hours, the supernatants were harvested and analyzed by ELISA for IFN-γ production. […] The data are presented in two ways, (1) as the absolute amount if IFN-γ produced (pg/mL±SEM) and (2) as the percentage of the amount of IFN-γ produced in the presence of 1 μM pomalidomide.

Assay [6] concerns TNF-α. The experiment in a line: TNF-α production in LPS-stimulated hPBMC (Luminex). It is filed as cell-based. The settings on record: Homo sapiens; LPS 1 ng/ml, 18 hours. On the procedure: as §1, §2, §3
Assay [7] concerns IL-5. The experiment in a line: IL-5 production in anti-human CD3-stimulated human T cells. It is filed as cell-based. As to conditions: 48 hours. On the procedure: (§9) The test compounds were prepared as stock solutions of 4 mM in DMSO. T cells were isolated from buffy coat by negative selection using the RosetteSep® T Cell Enrichment Cocktail according to manufacturer's procedures. All 96-well plates were pre-coated with 3 μg/mL anti-human CD3 antibody in 100 μL 1× PBS for 4 hours at 37° C. The plates were washed 3 times with RPMI-1640 Complete Media prior to the T cell assay. The T cells were then plated in anti-CD3-pre-coated plates at a density of 2.5×10^5 cells/well in 180 μL RPMI-1640 Complete Media. […] The final DMSO concentrations were 0.25%. The plates were incubated for 48 hours at 37° C., 5% CO2. After 48 hours, the supernatants were harvested and tested by a multiplex cytometric bead array (CBA) assay for the following cytokines/chemokines: IL-2, IL-3, IL-5, IL-10, IL-13, IL-15, IL-17A, GM-CSF, G-CSF, IFN-γ, TNF-α, and RANTES. The CBA plates were analyzed on the Luminex IS100 instrument. Data from each donor was graphed using GraphPad Prism 5.0 software and expressed as mean pg/mL±SEM and % of DMSO control±SEM.

Assay [8] has as its system bleomycin induced dermal fibrosis. Nature of the assay: Modified bleomycin induced dermal fibrosis mouse model, regression of established fibrosis. It is filed as in vivo, DBA/2 mice. As to conditions: 30 mg/kg, PO, QD, p<0.0001.
Experimental: Skin fibrosis was induced in 6-week-old DBA mice by local intracutaneous injections of 100 μl of bleomycin dissolved in 0.9% NaCl, at a concentration of 0.5 mg/ml, every other day in defined areas of 1.5 cm2 on the upper back.
Dermal thickness was determined by staining with hematoxylin and eosin and activated fibroblasts by using immunohistochemistry for alpha smooth mucle actin (α-SMA). […] Skin sections were stained with hematoxylin/eosin for better visualization of the tissue structure. Dermal thickness was analyzed with a Nikon Eclipse 80i microscope (Nikon, Badhoevedorp, The Netherlands) by measuring the maximal distance between the epidermal-dermal junction and the dermal-subcutaneous fat junction at 4 different skin sections in each mouse. The evaluation was performed by 2 independent examiners.
For assay [9], the system named is IgG production. The experiment in a line: IgG production in B cell differentiation assay (ELISA). Type of assay: cell-based. The settings on record: Homo sapiens. On the procedure:
as §4, §5, §6, §7, §8

The subject of assay [10] is IL-10. The experiment in a line: IL-10 production in anti-human CD3-stimulated human T cells. Type of assay: cell-based. On the procedure: as §9
Assay [11] relates to IL-8. Nature of the assay: IL-8 production in LPS-stimulated hPBMC (Luminex). The settings on record: Homo sapiens; LPS 1 ng/ml, 18 hours. It is filed as cell-based. On the procedure:
as §1, §2, §3

The subject of assay [12] is IL-1β. Nature of the assay: IL-1β production in LPS-stimulated hPBMC (Luminex). Type of assay: cell-based. As to conditions: Homo sapiens; LPS 1 ng/ml, 18 hours. On the procedure:
as §1, §2, §3

Assay [13] concerns bleomycin induced dermal fibrosis. The experiment in a line: Bleomycin induced dermal fibrosis mouse model, prevention of fibrosis. The settings on record: 30 mg/kg, PO, QD, p<0.0001. It is filed as in vivo, DBA/2 mice.
Experimental: Bleomycin was obtained from the pharmacy of the University of Erlangen-Nuremberg and freshly prepared once a week. Skin fibrosis was induced in 6-week-old DBA mice by local intracutaneous injections of 100 μl of bleomycin dissolved in 0.9% NaCl, at a concentration of 0.5 mg/ml, every other day in defined areas of 1.5 cm2 on the upper back.
In this model, a localized dermal fibrosis is induced by intradermal injections with bleomycin every other day for 3 weeks. […] To evaluate potential effects on prevention of fibrosis, treatment was initiated simultaneously with the first bleomycin injection. […]
Dermal thickness was determined by staining with hematoxylin and eosin and activated fibroblasts by using immunohistochemistry for alpha smooth mucle actin (α-SMA). […] Dermal thickness was analyzed with a Nikon Eclipse 80i microscope (Nikon, Badhoevedorp, The Netherlands) by measuring the maximal distance between the epidermal-dermal junction and the dermal-subcutaneous fat junction at 4 different skin sections in each mouse. […]
For quantification of myofibroblasts, skin sections were deparaffinized and incubated with 5% bovine serum albumin for 60 minutes. Cells positive for α-SMA were detected by incubation with monoclonal anti-α-SMA antibodies (clone 1A4; Sigma-Aldrich, Steinheim, Germany) for 2 hours at room temperature followed by incubation with 3% hydrogen peroxide for 10 minutes. […]
Assay [14] concerns Rituximab coated lymphoma cells (WSU-DLCL2, Farage, DoHH2, Riva, Raji). The experiment in a line: ADCC assay: NK cell-mediated ADCC (LDH release). Type of assay: cell-based, human. The settings on record: 0.01 to 10 μM, 48 hours pretreatment, effector:target 10:1. An excerpt: NK cells from healthy donors were isolated from buffy coat blood by negative selection using the RosetteSep NK cell enrichment cocktail (Stem Cell Technologies, Vancouver, BC) prior to Ficoll-Hypaque (Fisher Scientific Co LLC, PA) density gradient centrifugation following the manufacturers' instructions. CD56+ NK cells were isolated to ˜85% purity, as determined by flow cytometry (BD Biosciences, CA). […] Various lymphoma cell lines (GCB-DLBCL: WSU-DLCL2 and Farage; Follicular lymphoma:DoHH2; ABC-DLBCL: Riva; Burkitt's lymphoma [BL]: Raji) were treated with 5 μg/mL rituximab for 30 minutes at 37° C. Unbound rituximab was washed off, target cells (5×103/100 μL/well) were added to the pretreated effector cells (NK cells) at a 10:1 ratio, and the two were co-incubated for 4 hours at 37° C. […] Using an aliquot of supernatant (50 μL), NK cell cytotoxicity against tumor cells was analyzed using a standard lactate dehydrogenease (LDH) release assay to measure ADCC (CytoTox 96 Non-Radioactive Cytoxicity Assay, Promega, WI). Spontaneous release by target cells alone was <15% of the maximum release, as determined with target cells lysed in 1% Triton X-100. […] The percentage of specific lysis was calculated according to the formula: Percentage specific lysis=100×(experimental−effector spontaneous−target spontaneous)/(target maximum−target spontaneous).
Background: LDH leaks from cells whose membrane has failed.

For assay [15], the system named is anti-CD3-stimulated human T cells. The experiment in a line: Cytokine and chemokine production in anti-human CD3-stimulated human T cells (Luminex). It is filed as cell-based. The settings on record: 48 hours. On the procedure: as §9

pEC50, pIC50: −log10 of the molar value. Where a name gives a salt, the structure may show the parent alone.

For `Cc1ccc(NC(=O)c2ccc(CN3CCN(C)CC3)cc2)cc1Nc1nccc(-c2cccnc2)n1` [Imatinib mesylate], the “anti-fibrotic effects in bleomycin induced dermal fibrosis” value in assay [1] was “potent anti-fibrotic effects”.
For `Nc1cccc2c1C(=O)N(C1CCC(=O)NC1=O)C2=O` (stereo not drawn) [pomalidomide], the “average IL-10 enhancement” value in assay [2] was found to be 246.9%.
`Cc1nc2cccc(N)c2c(=O)n1C1CCC(=O)NC1=O` (stereo not drawn) [test compound, 3-(5-amino-2-methyl-4-oxoquinazolin-3(4H)-yl)piperidine-2,6-dione]: the pIC50 is less than 5.00 in assay [3]; 7.64 in [4] (Normal (n = 3)); 7.52 in assay [4] (SLE (n = 3)); 7.47 in assay [6]; 7.21 in [9] (Normal (n = 3)); 7.34 in [9] (SLE (n = 3)). In addition, the pIC50 in assay [11] was less than 5.00; in assay [12], 7.27. In addition, the pEC50 in assay [5] (Homo sapiens, immobilized IgG and rhIL-2, 48 hours, maximal = IFN-γ produced with 1 μM pomalidomide, read-out: EC50, half-maximal IFN-γ production) is 8.82. Moreover, in [5] (immobilized IgG and IL-2 stimulation), the “NK cell IFN-γ production” value is on record as “enhanced”. Besides, the entries for the “increase of IL-5 production” value in [7] (0.01 μM) and in [7] (0.1 μM) were 3 fold and 4 fold, respectively. Further, the “reduction of bleomycin induced dermal thickening” value in [8] is reported as 22±0.28%. Further, the values for the IL-10 production result in assay [10] (at higher concentrations) and in assay [10] (at lower concentrations) were “inhibited enhancement of IL-10 production” and “enhanced IL-10 production”, respectively. Also, the “prevention of dermal thickening” value in assay [13] (three weeks) is reported as “approximately 22±0.49%”. Besides, the “reduction of number of α-SMA+ myofibroblasts in lesional skin” value in assay [13] was 30±0.23%. For the same compound, the “NK cell-mediated ADCC” value in assay [14] is given as “induced dose-dependent NK cell-mediated ADCC in all cell lines”. Also, the “IL-2, IL-3, IL-5, IL-10, IL-13, GM-CSF, IFN-γ, RANTES, and TNF-α production in stimulated human T cells” value in assay [15] was “enhanced”.
